Test results published in PMC11099041, “Tissue distribution and retention drives efficacy of rapidly clearing VHL-based PROTACs” (Communications Medicine, 2024).
Read-outs that look alike come from different tables or passages of the source.

How the values were obtained:
[1] = Protein binding by equilibrium dialysis (plasma, tissue homogenates, DPBS); type: in vitro ADME, rat; details: rat, plasma
Procedure: Control plasma was purchased from BioIVT, Hicksville, New York. Pooled plasma was obtained from at least three rats with K2EDTA as the anticoagulant. Control plasma was used to test the suitability of the system and for positive control analysis. Dulbecco’s phosphate-buffered saline (DPBS) (Millipore Sigma, St Louis, Missouri) was used to test the suitability of the system and as the receiver side of the dialysis device. […] The stock solution was added to the matrix (plasma or DPBS) and swirled to mix. The fortified matrix was then incubated at 37 °C for 15 min. Triplicate aliquots of the fortified matrix were analyzed by LSC.
The high throughput dialysis apparatus, model HTD96b, was used (HTDialysis LLC, Gales Ferry, Connecticut). Prior to assembly, dialysis membrane strips (molecular weight cutoff of 6–8 kDa) were hydrated, and the Teflon bars were assembled according to manufacturer’s instructions, with dialysis membrane strips laid between bars creating two compartments per well. The assembled unit was locked in place in the steel base plate. A 150 µL aliquot of each fortified matrix (tissue homogenates, plasma, or DPBS) and DPBS were added to the donor and receiver side of the HTD wells in a Teflon plate, respectively, and the plate was sealed. Samples were incubated at 37 °C and rotated at 300 rpm for 7 hours. After incubation, the seal was removed, and tissue homogenates, plasma, or DPBS and dialysate from each device insert were analyzed by LSC. All protein binding determinations were performed in triplicate.
Dialysis was performed accordingly. The radioactivity concentration of the test article in the donor and receiver samples was determined by LSC (count time 60 min) for the calculation of protein binding. […] After the designated time, aliquots of the individual donor and receiver samples were removed and analyzed by LSC. The remaining sample volume was stored at −20 °C.
Dialysis was performed accordingly.
Protein binding by equilibrium dialysis:1 PercentDrugBound=(Cm-Cd)/Cm×100 2 PercentDrugUnbound=100-PercentBound where: Cd, concentration of test article in dialysate at equilibrium; Cm, Concentration of test article in matrix at equilibrium.
Recovery from equilibrium dialysis:3 Recovery(%)=(Cm×Vm)+(Cd×Vd)/(Co×Vo)×100 where: Cm, Concentration of test article in matrix at equilibrium; Cd, Concentration of test article in dialysate at equilibrium; Co, Original concentration of test article in matrix prior to loading the dialysis device; Vm, Nominal volume of the matrix at equilibrium; Vd, Nominal volume of the dialysate at equilibrium; Vo, Nominal volume of the original matrix added to the dialysis device.

[2] = In vitro metabolism in rat hepatocytes; details: 5 µM A947, 3 hr
Procedure: (§1) Hepatocyte cell count was ~1.1–1.8 × 10^6 cells/mL. After 3 h, samples were quenched with 3 volumes of acetonitrile, vortex mixed, and centrifuged. The supernatant (5 µL) was analyzed by LC-MS using a Kinetex EVO C18 column (1.7 μm, 2.1 × 150 mm) at 40 °C with a flow rate of 0.4 mL/min. Mobile phase A was 20 mM ammonium acetate in water, and mobile phase B was acetonitrile. The column was initially held at 5% B for 2 min, increased to 75% B over 33 minutes, and then increased to 95% B over 3 min, where it was maintained for 3 minutes before returning to 5% B over 0.5 min for re-equilibration. Mass spectrometry data was acquired using positive ion mode and data-dependent MS^2 acquisition.

[3] = In vitro metabolism in human hepatocytes; details: human hepatocytes, 5 µM A947, 3 hr
Procedure: as §1

[4] = Metabolite profiling in rat bile, urine and feces (radio-HPLC, LC-HRMS); type: in vivo; details: for %rad in feces: pooled feces
Procedure: Tissue homogenate samples at 24 hours were extracted as plasma samples. […] The pooled urine samples containing 10% MeOH were analyzed by liquid chromatography-high resolution mass spectrometry (LC-HRMS).
The pooled bile sample containing 10% MeOH was analyzed by LC-HRMS.
Feces samples obtained from BDC and intact rats were pooled separately across time intervals for each animal (5% w/v) and further pooled across animals for each group to generate a 0–68 hour pooled sample. Approximately 1–2 g of each pooled feces sample was extracted as the same protocol used for plasma samples. […] The reconstituted samples were analyzed by LC-HRMS.
The reconstituted samples were analyzed by LC-HRMS, with eluent fractions collected at 10-second intervals into 96-well plates containing solid scintillant. Radioactivity in each well was determined using TopCount analysis, and radiochemical profiles were generated based on radioactivity counts. Structural elucidation was performed based on mass spectral interpretation to identify metabolites.
For metabolite profiling and identification, LC-MS analysis used a Shimadzu/Nexera LC-30 AD liquid chromatographic system and a ThermoFisher Scientific Q Exactive with a positive/negative heated electrospray interface. The column was a Waters XSelect HSS T3 4.6 mm × 250 mm, 3.5 µm and maintained at 40 °C. The mobile phases were (A) 20 mM ammonium acetate in water and (B) acetonitrile. […] The flow was 1 mL/min and split 20% to mass analysis and 80% collected for radioactivity counting. Mass spectrometry data was acquired with full scans at a resolution of 70,000 for a m/z range of 300 to 1500, and MS/MS scans were acquired at a resolution of 17,500. The mass spectrometer was operated with a normalized collision energy of 30 (ESI+), S-Lens RF level of 60, source voltage of +3.5 kV, Capillary temperature of 320 °C, and Probe heater temperature of 300 °C.

[5] = human, 3 h, 5 µM
Procedure: as §1

[6] = male, Wistar Han, rat, 3 h, 5 µM
Procedure: as §1

[7] = IV 4 mg/kg, pooled 0–168-hour bile
[8] = Sprague Dawley, in vivo, iv, 4 mg/kg

SMILES: CC(=O)CC(c1ccccc1)c1c(O)c2ccccc2oc1=O (stereo not drawn) [14C-warfarin, warfarin, reference compound]
- Percent Unbound ([1]; 7 h, 3000 ng/mL): approximately 1.5%
- fraction unbound at 7 h, 3000 ng/mL ([1]; Fu): 0.015
- fraction unbound at 7 h, 3000 ng/mL ([1]; Percent Unbound): 0.0146

SMILES: Cc1ncsc1-c1ccc(C(C)NC(=O)C2CC(O)CN2C(=O)C(c2cc(N3CCC(C(=O)O)CC3)no2)C(C)C)cc1 (stereo not drawn) [M3]
- Estimated relative distribution percent of mass spectral abundance [2]: 0.2%
- Estimated relative distribution percent of mass spectral abundance [3]: 0.04%

SMILES: Nc1nnc(-c2ccccc2O)cc1N1CC2CCC(C1)N2c1ccnc(O)c1 [M5]
- %Rad in bile [4, 7]: 1.49%
- %rad in feces ([4]; IV 4 mg/kg): 1.86%
- %rad in urine ([4]; IV 4 mg/kg, pooled urine): 7.53%
- Estimated relative distribution percent of mass spectral abundance [5]: 0.1%

SMILES: CC(C)C(C(=O)N1CC(O)CC1C(=O)O)c1cc(N2CCC(CN3CCC(OC4CC(Oc5cc(N6C7CCC6CN(c6cc(-c8ccccc8O)nnc6N)C7)ccn5)C4)CC3)CC2)no1 (stereo not drawn) [M8]
- %Rad in bile [4, 8]: 3.47%

SMILES: CC(C)C(C(=O)O)c1cc(N2CCC(CN3CCC(OC4CC(Oc5cc(N6C7CCC6CN(c6cc(-c8ccccc8O)nnc6N)C7)ccn5)C4)CC3)CC2)no1 (stereo not drawn) [M9]
- %Rad in bile [4, 8]: 3.08%

SMILES: Nc1nnc(-c2ccccc2O)cc1N1CC2CCC(C1)N2c1ccnc(OC2CC(OC3CCNCC3)C2)c1 (stereo not drawn) [M10]
- %Rad in bile [4, 7]: 4.48%
- Estimated relative distribution percent of mass spectral abundance [5]: 2.6%
- Estimated relative distribution percent of mass spectral abundance [6]: 2.2%

SMILES: Nc1nnc(-c2ccccc2O)cc1N1CC2CCC(C1)N2c1ccnc(OC2CC(O)C2)c1 (stereo not drawn) [M11]
- %Rad in bile [4, 7]: 2.79%
- %rad in feces ([4]; IV 4 mg/kg): 4.34%
- %rad in urine ([4]; IV 4 mg/kg, pooled urine): 2.93%
- Estimated relative distribution percent of mass spectral abundance [5]: 0.8%
- Estimated relative distribution percent of mass spectral abundance [6]: 0.8%

SMILES: Cc1ncsc1-c1ccc(C(C)NC(=O)C2CC(OC3OC(C(=O)O)C(O)C(O)C3O)CN2C(=O)C(c2cc(N3CCC(CN4CCC(OC5CC(Oc6cc(N7C8CCC7CN(c7cc(-c9ccccc9OC9OC(C(=O)O)C(O)C(O)C9O)nnc7N)C8)ccn6)C5)CC4)CC3)no2)C(C)C)cc1 (stereo not drawn) [M17]
- %rad in urine [4, 8]: 21.86%

SMILES: Nc1nnc(-c2ccccc2O)cc1N1CC2CCC(C1)N2c1ccnc(OC2CC(OC3CCN(C=O)CC3)C2)c1 (stereo not drawn) [M18]
- %Rad in bile [4, 8]: 6.31%
